In publication PMC6664396, “A golden opportunity: benzofuranone modifications of aurones and their influence on optical properties, toxicity, and potential as dyes” (Beilstein Journal of Organic Chemistry, 2019):

What was measured:
[1] = tested on: Hep G2 human liver cancer cells; test: Hep G2 cytotoxicity assay (MTT); type: cell-based; parameters: Average % Inhibition: tested at 200 µM; details: for Hep G2 % inhibition: 200 μM concentration of compound, 3 days incubation, MTT readout; for % Inhibition: Hep G2 MTT absorbance relative to vehicle; for Average % Inhibition: average of Triplicates 1-3 (T1, T2, T3), Hep G2 MTT
Experimental: An initial screening of toxicity was conducted at a fairly high concentration (200 μM) on the present series of compounds using a standard HEP G2 inhibition assay (Table 1). Compared to a currently used yellow dye (tartrazine), the aurones are similar to more toxic. Within the aurone series, though, an interesting pair of trends can be observed. First, all hydroxylated aurones are comparatively more toxic, displaying >50% inhibition at 200 μM. Methyl groups are similarly mostly more toxic. For the halogens, however, location is fairly important, with the 6 or 7 position being much less toxic (similar to tartrazine) and dramatically better than the unsubstituted base compound 1, with the unexpected exception of 7-bromo compound 10. Whether this trend is general or not for aurone compounds is an interesting question for future study.
Hep G2 cytotoxicity assay
Hep G2 human liver cancer cells were cultured in phenol red Dulbecco’s
Modified Eagle Medium (DMEM) with 10% fetal bovine serum (FBS) and 1% Pen-strep (PSG) under 37°C and 5% CO2 atmospheric conditions. The cells were washed with phosphate buffered saline (PBS) and diluted with phenol red free DMEM to a concentration between 200,000 to 250,000 cells/mL. The cells we re distributed in a 96-well plate with each well containing 100 µL of the cell solution and were allowed to settle for 2 hours in the incubator. The cells were then treated with 200 µM of the aurones in DMSO and the known dyes in 10:90 (v:v) DMSO/ultrapure water in triplicates and were left in the incubator for 3 days. The vehicles were used as the negative controls (DMSO for the aurones and 10:90 DMSO:ultrapure water for the known dyes). 20 µL of 5 mg/mL MTT (3-(4,5-dimethylthiazol-2-yl)-2,5-diphenyltetrazolium bromide) was added to each well containing treated cells after the 3-day incubation period and was allowed to settle in the incubator for 3.5 more hours. Finally, the media was removed from the wells and replaced by 100 µL of DMSO to lyse the cells and dissolve the formazan crystals that were formed. The absorbance was then recorded on the SpectraMax M5 Multi -Mode Microplate Reader. The procedure was repeated two more times using different batches of cultured Hep G2 cells on different days. […]

[2] = UV–vis spectra in acetonitrile (λmax, extinction coefficient); type: physicochemical; parameters: λmax: unit: nm; details: for dissolution for ε determination: in CH3CN, printed in the ε column
Experimental: With the desired compounds in hand, their UV–visible spectra were recorded at concentrations between 29 and 44 μM in acetonitrile (Figure 3 and Table 1). While not all substituents were prepared at every position, some interesting trends were observed. Substitution at the 4-position whether halogen or hydroxy afforded essentially identical lambda maxima (390 nm), slighly red-shifted compared to the unsubstituted compound 1. On the other hand, hydroxy groups at the 6-position result in a significant blue shift of this lambda max by roughly 40 nm to around 338 nm, presumably due to their donating effect and conjugation with the carbonyl oxygen. […] On the other hand, substitution at the 7-position had virtually no effect, which is to be expected due to the lack of direct conjugation with the carbonyl as well as the only modest electronic effects of alkyl, chlorine, and bromine. In general, the substituent effects are all fairly modest and result in fairly moderate changes in the extinction coefficient (although hydroxy substitution does definitely increase this value by roughly 50%).

[3] = UV–vis spectra determined in CH3CN
[4] = supplement sheet Tabular ε Data, slope of linear equation, unit not given, in L mol⁻¹ cm⁻¹
[5] = supplement sheet Tabular ε Data, unit not given

Molecule | ε ([2]; UV–vis in CH3CN, at λmax) | λmax [2, 3] | ε [2, 4] | λmax [2, 5] | dissolution for ε determination [2] | dissolution for ε determination ([2]; listed as 6OH7Me) | Hep G2 % inhibition [1] | % Inhibition ([1]; Triplicate 1) | % Inhibition ([1]; Triplicate 2) | % Inhibition ([1]; Triplicate 3) | Average % Inhibition [1]
Cc1ccc(/C=C2\Oc3ccc(F)cc3C2=O)cc1 [Compound 2] | 17188 L/mol/cm | 394 nm | 17188 | 394 |  |  | 87.01 ± 0.56% | 90.35% | 81.77% | 88.89% | 
Cc1ccc(/C=C2\Oc3cccc(Cl)c3C2=O)cc1 [Compound 4] | 17129 L/mol/cm | 390 nm | 17129 | 390 |  |  |  | 24.72% | 7.19% | 13.49% | 15.13%
Cc1ccc(/C=C2\Oc3ccc(Cl)cc3C2=O)cc1 [Compound 5] | 16551 L/mol/cm | 394 nm | 16551 | 394 |  |  | 72.68 ± 2.77% | 72.62% | 63.25% | 82.18% | 
Cc1ccc(/C=C2\Oc3c(Cl)cccc3C2=O)cc1 [Compound 7] | 17247 L/mol/cm | 386 nm | 17247 | 386 |  |  | 3.64 ± 3.64% | 7.01% | -3.78% | 7.69% | 
Cc1ccc(/C=C2\Oc3ccc(C)cc3C2=O)cc1 [Compound 11] | 15470 L/mol/cm | 390 nm | 15470 | 390 |  |  | 80.88 ± 1.38% | 79.75% | 75.21% | 87.68% | 
Cc1ccc(/C=C2\Oc3c(C)cccc3C2=O)cc1 [Compound 13] | 18380 L/mol/cm | 386 nm | 18380 | 386 |  |  | 87.54 ± 1.61% | 89.87% | 82.08% | 90.66% | 
Cc1ccc(/C=C2\Oc3cc(O)ccc3C2=O)cc1 [Compound 14] | 33050 L/mol/cm | 338 nm | 33050 | 338 |  |  | 66.79 ± 3.04% | 60.23% | 53.07% | 87.07% | 
Cc1ccc(/C=C2\Oc3cccc(O)c3C2=O)cc1 [Compound 15] | 22664 L/mol/cm | 390 nm | 22664 | 390 |  |  | 54.04 ± 4.65% | 62.56% | 40.66% | 58.91% | 
Cc1ccc(C=C2Oc3cc(O)cc(C)c3C2=O)cc1 [Compound 16] | 30445 L/mol/cm | 338 nm | 30445 | 338 |  |  | 67.76 ± 6.06% | 77.36% | 54.17% | 71.74% | 
O=C([O-])C1=NN(c2ccc(S(=O)(=O)[O-])cc2)C(=O)C1N=Nc1ccc(S(=O)(=O)[O-])cc1.[Na+].[Na+].[Na+] (stereo not drawn) [tartrazine, reference compound] |  |  |  |  |  |  | 6.81% | 14.72% | 3.80% | 1.93% | 
Alizarin Y [reference compound] |  |  |  |  |  |  | -54.45% | -50.46% | -60.58% | -52.30% | 

Now from value to molecule, other results behind:

ε ([2]; UV–vis in CH3CN, at λmax) | λmax [2, 3] | ε [2, 4] | λmax [2, 5] | dissolution for ε determination [2] | dissolution for ε determination ([2]; listed as 6OH7Me) | Molecule | Hep G2 % inhibition [1] | % Inhibition ([1]; Triplicate 1) | % Inhibition ([1]; Triplicate 2) | % Inhibition ([1]; Triplicate 3) | Average % Inhibition [1]
20208 L/mol/cm | 382 nm | 20208 | 382 |  |  | Cc1ccc(C=C2Oc3ccccc3C2=O)cc1 [Compound 1] | 86.27 ± 1.09% | 88.03% | 81.21% | 89.58% | 
24252 L/mol/cm | 370 nm | 24252 | 370 |  |  | Cc1ccc(/C=C2\Oc3cc(F)ccc3C2=O)cc1 [Compound 3] | 3.52 ± 3.39% | 5.64% | 13.37% | -8.44% | 
23187 L/mol/cm | 378 nm | 23187 | 378 |  |  | Cc1ccc(/C=C2\Oc3cc(Cl)ccc3C2=O)cc1 [Compound 6] | 25.07 ± 18.77% | 19.67% | 34.31% | 21.23% | 
15112 L/mol/cm | 394 nm | 15112 | 394 |  |  | Cc1ccc(C=C2Oc3ccc(Br)cc3C2=O)cc1 [Compound 8] | 59.35 ± 1.25% | 65.35% | 37.11% | 75.61% | 
22435 L/mol/cm | 378 nm | 22435 | 378 |  |  | Cc1ccc(/C=C2\Oc3cc(Br)ccc3C2=O)cc1 [Compound 9] | 75.22 ± 3.84% | 77.38% | 72.50% | 75.78% | 
22250 L/mol/cm | 390 nm | 22250 | 390 |  |  | Cc1ccc(/C=C2\Oc3c(Br)cccc3C2=O)cc1 [Compound 10] |  | 8.16% | -1.79% | 11.18% | 5.85%
19522 L/mol/cm | 382 nm | 19522 | 382 |  |  | Cc1ccc(/C=C2\Oc3cc(C)c(C)cc3C2=O)cc1 [Compound 12] | 24.95 ± 2.23% | 30.58% | 22.83% | 21.44% | 
 | 336 nm |  | 336 | will not dissolve completely | will not dissolve | Cc1ccc(/C=C2\Oc3c(ccc(O)c3C)C2=O)cc1 [Compound 17] | 78.58 ± 7.11% | 77.81% | 74.71% | 83.21% | 
